Among the test systems are CAKI-1; CCRF-CEM; COLO 205; DU-145; HCT-15; HL-60; LOX IMVI; MDA-MB-435; MOLT-4; NCI-H23; NCI/ADR-RES; SF-268; SF-295; SK-MEL-2; SNB-19; SNB-75; SR; TK-10; UACC-257; OVCAR-4.
What all share (assay): NCI anticancer screen, dose series, 48 h

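Test compounds were applied to cells in 96-well plates for 48 hours at 5 doses. GI50 = concentration required for 50% inhibition of growth.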 Active and inactive are the calls of the source. No stated cut-off is given here; in the data, active = GI50 up to about 1.1 µM and inactive = higher.

The values that follow come from ChEMBL document CHEMBL1201862, “PubChem BioAssay data set” (2004).

In the case of `CNC(=O)C1OC(n2cnc3c(NCc4cccc(I)c4)nc(Cl)nc32)C(O)C1O` (stereo unspecified), the GI50 with CAKI-1 was 19.3 µM (inactive); with CCRF-CEM it was 16.7 µM (inactive); in the assay with COLO 205, 22.5 µM (inactive); with DU-145, 19.7 µM (inactive); in the assay with HCT-15, 1.06 µM; in the assay on HL-60, 15.3 µM (inactive). Moreover, the GI50 is 6.18 µM (inactive) with LOX IMVI; 11.3 µM (inactive) in the assay on MDA-MB-435; 14.2 µM (inactive) in the assay with MOLT-4; 12.7 µM (inactive) in the assay on NCI-H23; 11.7 µM (inactive) in the assay with NCI/ADR-RES; 11.4 µM (inactive) with SF-268. Besides, the GI50 with SF-295 is 18.7 µM (inactive); with SK-MEL-2, 14.7 µM (inactive); in the assay on SNB-19, 12.4 µM (inactive); in the assay with SNB-75, 0.839 µM (active); in the assay on SR it was 14 µM (inactive); with TK-10 it was 16.3 µM (inactive). In the assay on UACC-257, the GI50 was 11.4 µM (inactive).

Take `CC(C)C(/N=C/c1ccccc1O)C(=O)O` (stereo unspecified): the GI50 is > 100 µM (inactive) in the assay on CAKI-1; > 100 µM (inactive) in the assay with CCRF-CEM; > 100 µM (inactive) with COLO 205; > 100 µM (inactive) in the assay on DU-145; greater than 100 µM in the assay with HCT-15; > 100 µM (inactive) in the assay on HL-60. Further, the GI50 with LOX IMVI, in the assay with MDA-MB-435, in the assay with MOLT-4, with NCI-H23, in the assay with NCI/ADR-RES and in the assay on OVCAR-4 was > 100 µM (inactive) in each case. Besides, the GI50 is > 100 µM (inactive) in the assay on SF-268; > 100 µM (inactive) with SF-295; 20.6 µM (inactive) in the assay with SK-MEL-2; > 100 µM (inactive) in the assay on SNB-19; > 100 µM (inactive) with SR; > 100 µM (inactive) in the assay with TK-10. Moreover, in the assay with UACC-257, the GI50 is > 100 µM (inactive).

As for `O=C1Nc2ccc(Br)cc2/C1=N/N1C(=O)C(=O)N(C2CCCCC2)C1=S`, the GI50 is 3.1 µM (inactive) with CAKI-1; 2.21 µM (inactive) in the assay with CCRF-CEM; 2.92 µM (inactive) in the assay on COLO 205; 9.42 µM (inactive) with DU-145; 2.42 µM with HCT-15; 2.16 µM (inactive) in the assay with HL-60. The GI50 was 4.07 µM (inactive) with LOX IMVI; 1.94 µM (inactive) with MDA-MB-435; 2.26 µM (inactive) in the assay with MOLT-4; 7.11 µM (inactive) in the assay on NCI-H23; 3.22 µM (inactive) in the assay on NCI/ADR-RES; 4.44 µM (inactive) in the assay with OVCAR-4. Moreover, the GI50 with SF-268 is 6.7 µM (inactive); in the assay on SF-295, 3.16 µM (inactive); with SK-MEL-2, 1.41 µM (inactive); in the assay with SNB-19, 9.64 µM (inactive); with SR, 1.19 µM (inactive); in the assay with TK-10 it was 12.2 µM (inactive). In addition, in the assay on UACC-257, the GI50 was 9.55 µM (inactive).

`CCOC(=O)/C(C(=S)NC)=C(/N)N1CCCC1`: the GI50 is 77.1 µM (inactive) with CAKI-1; > 100 µM (inactive) with CCRF-CEM; > 100 µM (inactive) with COLO 205; > 100 µM (inactive) with DU-145; greater than 100 µM with HCT-15; > 100 µM (inactive) in the assay on HL-60. Also, the GI50 in the assay with LOX IMVI, in the assay with MDA-MB-435, in the assay with MOLT-4, in the assay on NCI-H23, in the assay with NCI/ADR-RES and with OVCAR-4 was > 100 µM (inactive) throughout. For the same molecule, the GI50 with SF-268, with SF-295, in the assay with SK-MEL-2, in the assay with SNB-19, in the assay with SR and in the assay with TK-10 was > 100 µM (inactive) each time. In addition, the GI50 in the assay on UACC-257 was > 100 µM (inactive).

For the molecule `CCOc1cc(C(c2c(O)c3ccccc3oc2=O)c2c(O)c3ccccc3oc2=O)ccc1OC`, the GI50 in the assay with CAKI-1 is 16.4 µM (inactive); with CCRF-CEM, 22.1 µM (inactive); with COLO 205, 20 µM (inactive); in the assay with DU-145, 19.3 µM (inactive); with HCT-15, 21.3 µM; in the assay on HL-60 it was 24.8 µM (inactive). The GI50 was 20.6 µM (inactive) in the assay with LOX IMVI; 15.3 µM (inactive) in the assay with MDA-MB-435; 35.9 µM (inactive) in the assay with MOLT-4; 23.4 µM (inactive) in the assay with NCI-H23; 27.4 µM (inactive) in the assay with NCI/ADR-RES; 17.2 µM (inactive) in the assay with OVCAR-4. Also, the GI50 was 18.9 µM (inactive) with SF-268; 19.4 µM (inactive) in the assay with SF-295; 20.6 µM (inactive) with SK-MEL-2; 23.8 µM (inactive) in the assay with SNB-19; 28.1 µM (inactive) in the assay with SR; 18 µM (inactive) in the assay with TK-10. Moreover, the GI50 in the assay on UACC-257 is 16.4 µM (inactive).

Consider `COc1ccc(-n2nnnc2C2(Nc3ccccc3)CCN(Cc3ccccc3)CC2)cc1`, for which the GI50 in the assay on CCRF-CEM was 18.7 µM (inactive); with COLO 205, 6.82 µM (inactive); with DU-145, 24.9 µM (inactive); in the assay on HCT-15, 7.21 µM; with HL-60, 2.56 µM (inactive); with LOX IMVI it was 9.29 µM (inactive). The GI50 in the assay on MDA-MB-435 is 3.29 µM (inactive); in the assay on MOLT-4, 5.04 µM (inactive); in the assay on NCI-H23, 21 µM (inactive); in the assay with NCI/ADR-RES, 7.35 µM (inactive); in the assay with OVCAR-4 it was 21.3 µM (inactive); with SF-268, > 10 µM (inactive). Further, the GI50 with SF-295 was 13.6 µM (inactive); with SNB-19, 12.3 µM (inactive); in the assay with SNB-75 it was 12.2 µM (inactive); with SR, 5.3 µM (inactive); in the assay on TK-10, 12.4 µM (inactive); in the assay with UACC-257 it was 13.8 µM (inactive).

As for `COC1/C=C/C(C)C(O)CC(O)/C=C/C(C)C(C(C)C(OC)C(C)CCC(=O)C(C)C(C/C=C/N(C)C=O)OC)OC(=O)/C=C/C=C(\C)CC(OC)CC2=CC(=O)O[C@@H](C(C)C(OC)C1)[C@H]2O` (stereo partly specified), the GI50 with CAKI-1 was < 0.005 µM (active); with CCRF-CEM, 0.00687 µM (active); with COLO 205, 0.00513 µM (active); in the assay with DU-145 it was 0.0221 µM (active); in the assay with HCT-15, less than 0.005 µM; in the assay with HL-60, < 0.005 µM (active). The GI50 is < 0.005 µM (active) in the assay on LOX IMVI; 0.0105 µM (active) with MDA-MB-435; 0.0163 µM (active) in the assay with MOLT-4; 0.011 µM (active) in the assay with NCI-H23; 0.00656 µM (active) in the assay with NCI/ADR-RES; 0.0267 µM (active) in the assay on OVCAR-4. Moreover, the GI50 was 0.0233 µM (active) with SF-268; < 0.005 µM (active) in the assay with SF-295; 0.0168 µM (active) with SNB-19; < 0.005 µM (active) in the assay with SNB-75; 0.00736 µM (active) with SR; 0.00542 µM (active) in the assay with TK-10. In addition, the GI50 in the assay on UACC-257 is 0.0103 µM (active).

In the case of `Cc1c(C(=O)N2CCN(c3ccc([N+](=O)[O-])cc3)CC2)[n+]([O-])c2cc(Cl)c(Cl)cc2[n+]1[O-]`, the GI50 in the assay with CAKI-1 was 25.1 µM (inactive); with CCRF-CEM it was > 100 µM (inactive); in the assay on COLO 205, 26.4 µM (inactive); in the assay with DU-145, 19.8 µM (inactive); in the assay with HCT-15 it was 17.1 µM; in the assay with HL-60, 28.4 µM (inactive). Besides, the GI50 is 29.9 µM (inactive) in the assay with LOX IMVI; 35.7 µM (inactive) with MDA-MB-435; 72.8 µM (inactive) in the assay with MOLT-4; 14.8 µM (inactive) in the assay on NCI-H23; 16.8 µM (inactive) in the assay on NCI/ADR-RES; 10.8 µM (inactive) in the assay with OVCAR-4. Further, the GI50 was 17.3 µM (inactive) with SF-268; 19.1 µM (inactive) in the assay with SF-295; 31.3 µM (inactive) in the assay on SK-MEL-2; 18.3 µM (inactive) in the assay on SNB-19; 21.2 µM (inactive) in the assay on SR; 21.6 µM (inactive) with TK-10. For the same molecule, the GI50 with UACC-257 was 35.6 µM (inactive).

With `CC(NC1=NCCO1)c1cccs1` (stereo unspecified), the GI50 with CCRF-CEM was 20 µM (inactive); in the assay on COLO 205, 19.5 µM (inactive); in the assay on DU-145, 87.9 µM (inactive); with HCT-15, 33.7 µM; with HL-60 it was 17.9 µM (inactive); in the assay with MDA-MB-435, 19.7 µM (inactive). Besides, the GI50 with MOLT-4 was 22.1 µM (inactive); with NCI-H23, 50.2 µM (inactive); in the assay with NCI/ADR-RES, > 100 µM (inactive); with OVCAR-4, 30.8 µM (inactive); in the assay with SF-268 it was 30.4 µM (inactive); with SF-295, 16.5 µM (inactive). In addition, the GI50 is 20.5 µM (inactive) in the assay on SNB-19; 37.7 µM (inactive) in the assay on SNB-75; 26.4 µM (inactive) in the assay with SR; > 100 µM (inactive) in the assay on TK-10; 18.1 µM (inactive) in the assay on UACC-257.

For `CN(C)c1n/c(=N/Cc2ccncc2)ss1`, the GI50 is 31.5 µM (inactive) in the assay with CAKI-1; 13.6 µM (inactive) in the assay with CCRF-CEM; 54.5 µM (inactive) with COLO 205; > 10 µM (inactive) in the assay with DU-145; 45 µM in the assay on HCT-15; 4.39 µM (inactive) in the assay on HL-60. For the same molecule, the GI50 with LOX IMVI was 16.4 µM (inactive); with MDA-MB-435, 38.9 µM (inactive); in the assay on MOLT-4 it was 20.3 µM (inactive); in the assay on NCI-H23, 17.5 µM (inactive); in the assay on NCI/ADR-RES, > 72.8 µM (inactive); in the assay on OVCAR-4 it was 18.7 µM (inactive). The GI50 is 46.2 µM (inactive) with SF-268; > 90.8 µM (inactive) in the assay on SF-295; > 71.4 µM (inactive) in the assay with SNB-19; 18.4 µM (inactive) in the assay with SNB-75; 6.4 µM (inactive) in the assay with SR; > 66.2 µM (inactive) with TK-10. The GI50 with UACC-257 was > 39.7 µM (inactive).

Take `COC(=O)[C@@]12CN(C)[C@@H](C(C)(C)C)N1C(=O)OC2c1ccccc1` (stereo partly specified): the GI50 was > 100 µM (inactive) in the assay with CAKI-1; > 100 µM (inactive) in the assay on CCRF-CEM; > 100 µM (inactive) in the assay on COLO 205; > 100 µM (inactive) in the assay on DU-145; greater than 100 µM with HCT-15; > 100 µM (inactive) with HL-60. Moreover, the GI50 in the assay with LOX IMVI, in the assay with MDA-MB-435, in the assay with MOLT-4, in the assay on NCI-H23, in the assay on NCI/ADR-RES and with OVCAR-4 was > 100 µM (inactive) in each case. The GI50 in the assay on SF-268, in the assay on SF-295, in the assay with SNB-19, in the assay on SNB-75, with SR and in the assay with TK-10 was > 100 µM (inactive) each time. In addition, the GI50 in the assay with UACC-257 was > 100 µM (inactive).
